Assays:
Experiment in all cases: biochemical
[1] = target: T1, 371 kinases (kinase named in each endpoint) (Homo sapiens, UniProt P36894); settings: ALK3/BMPR1A
T1 construct: purchased Reaction Biology

[2] = target: T2, 371 kinases (kinase named in each endpoint) (Homo sapiens, UniProt Q96RG2); settings: PASK
T2 construct: purchased Reaction Biology

[3] = target: T3, 371 kinases (kinase named in each endpoint) (Homo sapiens, UniProt Q15303); settings: ERBB4/HER4
T3 construct: purchased Reaction Biology
T3 sequence (Q15303 26-1308): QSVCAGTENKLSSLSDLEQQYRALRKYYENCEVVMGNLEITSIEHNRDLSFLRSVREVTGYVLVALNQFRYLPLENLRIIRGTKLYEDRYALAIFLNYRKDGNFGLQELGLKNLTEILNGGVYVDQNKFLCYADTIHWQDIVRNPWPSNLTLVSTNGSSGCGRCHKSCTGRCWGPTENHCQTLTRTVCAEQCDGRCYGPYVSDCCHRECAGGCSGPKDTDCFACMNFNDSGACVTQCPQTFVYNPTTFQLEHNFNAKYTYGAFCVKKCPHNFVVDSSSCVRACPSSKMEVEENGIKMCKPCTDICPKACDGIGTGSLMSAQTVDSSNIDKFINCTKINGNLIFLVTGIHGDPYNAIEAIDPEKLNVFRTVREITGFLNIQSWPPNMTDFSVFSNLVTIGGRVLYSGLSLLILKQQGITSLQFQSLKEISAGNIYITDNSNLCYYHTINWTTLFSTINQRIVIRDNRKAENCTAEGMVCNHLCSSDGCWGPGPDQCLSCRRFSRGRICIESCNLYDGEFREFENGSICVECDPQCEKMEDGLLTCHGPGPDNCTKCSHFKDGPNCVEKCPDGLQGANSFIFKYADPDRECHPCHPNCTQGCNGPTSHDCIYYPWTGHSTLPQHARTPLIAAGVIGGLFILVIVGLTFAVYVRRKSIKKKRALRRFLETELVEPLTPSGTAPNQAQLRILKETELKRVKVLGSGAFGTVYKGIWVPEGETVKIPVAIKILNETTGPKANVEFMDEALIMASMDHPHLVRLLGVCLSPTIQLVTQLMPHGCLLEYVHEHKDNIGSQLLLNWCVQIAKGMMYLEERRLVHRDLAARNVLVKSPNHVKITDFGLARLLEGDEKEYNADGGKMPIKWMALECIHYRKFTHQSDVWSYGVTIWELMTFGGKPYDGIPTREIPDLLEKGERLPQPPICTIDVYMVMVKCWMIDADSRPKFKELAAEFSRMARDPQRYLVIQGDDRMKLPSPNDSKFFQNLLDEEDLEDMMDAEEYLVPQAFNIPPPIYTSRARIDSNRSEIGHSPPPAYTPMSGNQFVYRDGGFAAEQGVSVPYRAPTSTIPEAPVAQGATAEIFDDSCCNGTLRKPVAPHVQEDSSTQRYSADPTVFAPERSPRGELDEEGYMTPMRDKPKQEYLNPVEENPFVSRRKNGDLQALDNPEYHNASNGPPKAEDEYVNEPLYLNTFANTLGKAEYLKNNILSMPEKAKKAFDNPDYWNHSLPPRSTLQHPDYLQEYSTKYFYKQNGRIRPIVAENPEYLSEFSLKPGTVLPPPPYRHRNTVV

[4] = target: T4, 371 kinases (kinase named in each endpoint) (Homo sapiens, UniProt P80192); settings: MLK1/MAP3K9
T4 construct: purchased Reaction Biology

[5] = target: T5, 371 kinases (kinase named in each endpoint) (Homo sapiens, UniProt O95382); settings: MEKK6
T5 construct: purchased Reaction Biology

[6] = tested on: 371 kinases (kinase named in each endpoint); settings: 10 µM
[7] = target: T6, 371 kinases (kinase named in each endpoint) (Homo sapiens, UniProt P50750)
T6 construct: purchased Reaction Biology
T6 sequence (P50750 whole entry): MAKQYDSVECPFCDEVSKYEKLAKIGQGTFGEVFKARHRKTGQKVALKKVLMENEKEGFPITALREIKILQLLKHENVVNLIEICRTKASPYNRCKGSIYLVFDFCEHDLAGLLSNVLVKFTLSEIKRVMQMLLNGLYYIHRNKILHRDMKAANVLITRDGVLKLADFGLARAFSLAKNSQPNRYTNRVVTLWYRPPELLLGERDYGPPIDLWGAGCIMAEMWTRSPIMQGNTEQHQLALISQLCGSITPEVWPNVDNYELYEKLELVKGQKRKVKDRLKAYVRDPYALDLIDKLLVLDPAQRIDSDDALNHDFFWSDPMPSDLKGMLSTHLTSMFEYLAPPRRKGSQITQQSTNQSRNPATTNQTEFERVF

[8] = target: T7, 371 kinases (kinase named in each endpoint) (Homo sapiens, UniProt Q9BYP7); settings: WNK3
T7 construct: purchased Reaction Biology

[9] = target: T8, 371 kinases (kinase named in each endpoint) (Homo sapiens, UniProt Q9UQM7); settings: CAMK2A
T8 construct: purchased Reaction Biology
T8 sequence (Q9UQM7 whole entry): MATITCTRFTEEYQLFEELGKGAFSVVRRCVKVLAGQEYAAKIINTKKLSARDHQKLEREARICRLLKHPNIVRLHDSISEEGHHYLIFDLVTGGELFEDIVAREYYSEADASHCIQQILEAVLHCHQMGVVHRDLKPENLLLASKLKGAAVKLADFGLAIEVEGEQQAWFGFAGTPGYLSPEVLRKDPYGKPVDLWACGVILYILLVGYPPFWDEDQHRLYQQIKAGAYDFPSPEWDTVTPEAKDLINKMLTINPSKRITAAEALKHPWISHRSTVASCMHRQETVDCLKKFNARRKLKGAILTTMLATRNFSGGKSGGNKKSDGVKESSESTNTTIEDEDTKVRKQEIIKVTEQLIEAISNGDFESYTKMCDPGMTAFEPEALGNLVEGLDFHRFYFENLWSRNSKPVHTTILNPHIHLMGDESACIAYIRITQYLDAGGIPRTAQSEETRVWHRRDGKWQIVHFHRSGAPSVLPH

[10] = target: T9, 371 kinases (kinase named in each endpoint) (Homo sapiens, UniProt Q6IQ55); settings: TTBK2
T9 construct: purchased Reaction Biology

[11] = target: T10, 371 kinases (kinase named in each endpoint) (Homo sapiens, UniProt Q96PF2); settings: TSSK2
T10 construct: purchased Reaction Biology

[12] = target: T11, 371 kinases (kinase named in each endpoint) (Homo sapiens, UniProt Q9UBS0); settings: P70S6KB/RPS6KB2
T11 construct: purchased Reaction Biology

[13] = target: T12, 371 kinases (kinase named in each endpoint) (Homo sapiens, UniProt P29376); settings: TYK1/LTK
T12 construct: purchased Reaction Biology

[14] = target: T13, 371 kinases (kinase named in each endpoint) (Homo sapiens, UniProt Q9BYT3); settings: STK33
T13 construct: purchased Reaction Biology

[15] = target: T14, 371 kinases (kinase named in each endpoint) (Homo sapiens, UniProt Q86Z02); settings: HIPK1
T14 construct: purchased Reaction Biology

[16] = target: T15, 371 kinases (kinase named in each endpoint) (Homo sapiens, UniProt P00519); settings: ABL1
T15 construct: purchased Reaction Biology

[17] = target: T16, 371 kinases (kinase named in each endpoint) (Homo sapiens, UniProt Q9UEW8); settings: STK39/STLK3
T16 construct: purchased Reaction Biology

[18] = target: T17, 371 kinases (kinase named in each endpoint) (Homo sapiens, UniProt P43250); settings: GRK6
T17 construct: purchased Reaction Biology

[19] = target: T18, 371 kinases (kinase named in each endpoint) (Homo sapiens, UniProt P53671); settings: LIMK2
T18 construct: purchased Reaction Biology
T18 sequence (P53671 whole entry): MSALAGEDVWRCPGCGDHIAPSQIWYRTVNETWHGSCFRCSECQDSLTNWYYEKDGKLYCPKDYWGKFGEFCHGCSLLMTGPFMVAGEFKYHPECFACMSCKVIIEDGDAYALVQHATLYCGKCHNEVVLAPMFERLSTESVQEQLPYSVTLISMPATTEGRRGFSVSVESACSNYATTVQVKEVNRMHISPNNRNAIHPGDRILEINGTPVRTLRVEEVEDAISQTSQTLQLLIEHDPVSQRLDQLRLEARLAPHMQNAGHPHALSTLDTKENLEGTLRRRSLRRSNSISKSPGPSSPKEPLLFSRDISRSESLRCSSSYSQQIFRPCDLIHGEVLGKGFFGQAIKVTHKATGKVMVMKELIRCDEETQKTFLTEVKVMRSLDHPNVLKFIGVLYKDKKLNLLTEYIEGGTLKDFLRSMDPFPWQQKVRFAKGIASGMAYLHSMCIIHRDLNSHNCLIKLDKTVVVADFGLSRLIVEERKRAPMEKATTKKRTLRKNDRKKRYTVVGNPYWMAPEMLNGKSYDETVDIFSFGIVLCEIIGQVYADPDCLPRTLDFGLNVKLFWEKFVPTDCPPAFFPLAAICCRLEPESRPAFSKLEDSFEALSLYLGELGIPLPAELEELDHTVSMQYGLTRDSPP

[20] = target: T19, 371 kinases (kinase named in each endpoint) (Homo sapiens, UniProt O14733); settings: MKK7
T19 construct: purchased Reaction Biology

[21] = target: T20, 371 kinases (kinase named in each endpoint) (Homo sapiens, UniProt O75385); settings: ULK1
T20 construct: purchased Reaction Biology

[22] = target: T21, 371 kinases (kinase named in each endpoint) (Homo sapiens, UniProt Q8IW41); settings: MAPKAPK5/PRAK
T21 construct: purchased Reaction Biology
T21 sequence (Q8IW41 whole entry): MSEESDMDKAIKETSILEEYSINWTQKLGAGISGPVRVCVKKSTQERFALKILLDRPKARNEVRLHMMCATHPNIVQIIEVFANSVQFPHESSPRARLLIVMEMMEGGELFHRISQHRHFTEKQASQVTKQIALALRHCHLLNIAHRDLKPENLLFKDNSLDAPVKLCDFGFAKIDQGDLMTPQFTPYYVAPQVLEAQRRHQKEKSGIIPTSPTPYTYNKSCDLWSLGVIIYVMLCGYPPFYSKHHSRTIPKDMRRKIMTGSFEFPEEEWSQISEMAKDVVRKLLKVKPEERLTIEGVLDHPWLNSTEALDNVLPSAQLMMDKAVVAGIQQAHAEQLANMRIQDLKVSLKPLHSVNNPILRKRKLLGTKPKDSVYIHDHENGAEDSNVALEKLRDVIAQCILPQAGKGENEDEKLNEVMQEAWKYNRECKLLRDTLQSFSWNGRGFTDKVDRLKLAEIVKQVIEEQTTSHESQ

[23] = target: T22, 371 kinases (kinase named in each endpoint) (Homo sapiens, UniProt Q9H0K1); settings: SIK2
T22 construct: purchased Reaction Biology

[24] = target: T23, 371 kinases (kinase named in each endpoint) (Homo sapiens, UniProt Q13557); settings: CAMK2D
T23 construct: purchased Reaction Biology

[25] = target: T24, 371 kinases (kinase named in each endpoint) (Homo sapiens, UniProt P49840); settings: GSK3a
T24 construct: purchased Reaction Biology

[26] = target: T25, 371 kinases (kinase named in each endpoint) (Homo sapiens, UniProt O43293); settings: ZIPK/DAPK3
T25 construct: purchased Reaction Biology

[27] = target: T26, 371 kinases (kinase named in each endpoint) (Homo sapiens, UniProt Q8N4C8); settings: MINK/MINK1
T26 construct: purchased Reaction Biology

[28] = target: T27, 371 kinases (kinase named in each endpoint) (Homo sapiens, UniProt Q6PHR2); settings: ULK3
T27 construct: purchased Reaction Biology
T27 sequence (Q6PHR2 whole entry): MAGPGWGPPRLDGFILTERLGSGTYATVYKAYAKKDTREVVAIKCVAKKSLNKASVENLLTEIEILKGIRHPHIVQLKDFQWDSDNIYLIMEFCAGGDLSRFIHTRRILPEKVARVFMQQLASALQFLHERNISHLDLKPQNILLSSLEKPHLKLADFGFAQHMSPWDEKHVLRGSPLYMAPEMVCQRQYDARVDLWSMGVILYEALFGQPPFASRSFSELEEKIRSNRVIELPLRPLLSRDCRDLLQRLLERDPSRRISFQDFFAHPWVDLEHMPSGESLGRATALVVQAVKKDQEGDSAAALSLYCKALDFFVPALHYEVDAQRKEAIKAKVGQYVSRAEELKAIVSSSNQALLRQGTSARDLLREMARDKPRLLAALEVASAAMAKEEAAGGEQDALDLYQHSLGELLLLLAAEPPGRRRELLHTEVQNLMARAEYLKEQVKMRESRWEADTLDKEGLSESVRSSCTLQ

[29] = target: T28, 371 kinases (kinase named in each endpoint) (Homo sapiens, UniProt Q02750); settings: MEK1
T28 construct: purchased Reaction Biology

[30] = target: T29, 371 kinases (kinase named in each endpoint) (Homo sapiens, UniProt Q14680); settings: MELK
T29 construct: purchased Reaction Biology

[31] = target: T30, 371 kinases (kinase named in each endpoint) (Homo sapiens, UniProt Q13233); settings: MEKK1
T30 construct: purchased Reaction Biology

[32] = target: T31, 371 kinases (kinase named in each endpoint) (Homo sapiens, UniProt Q8TDX7); settings: NEK7
T31 construct: purchased Reaction Biology

[33] = target: T32, 371 kinases (kinase named in each endpoint) (Homo sapiens, UniProt P00533); settings: EGFR
T32 construct: purchased Reaction Biology
T32 sequence (P00533 25-1210): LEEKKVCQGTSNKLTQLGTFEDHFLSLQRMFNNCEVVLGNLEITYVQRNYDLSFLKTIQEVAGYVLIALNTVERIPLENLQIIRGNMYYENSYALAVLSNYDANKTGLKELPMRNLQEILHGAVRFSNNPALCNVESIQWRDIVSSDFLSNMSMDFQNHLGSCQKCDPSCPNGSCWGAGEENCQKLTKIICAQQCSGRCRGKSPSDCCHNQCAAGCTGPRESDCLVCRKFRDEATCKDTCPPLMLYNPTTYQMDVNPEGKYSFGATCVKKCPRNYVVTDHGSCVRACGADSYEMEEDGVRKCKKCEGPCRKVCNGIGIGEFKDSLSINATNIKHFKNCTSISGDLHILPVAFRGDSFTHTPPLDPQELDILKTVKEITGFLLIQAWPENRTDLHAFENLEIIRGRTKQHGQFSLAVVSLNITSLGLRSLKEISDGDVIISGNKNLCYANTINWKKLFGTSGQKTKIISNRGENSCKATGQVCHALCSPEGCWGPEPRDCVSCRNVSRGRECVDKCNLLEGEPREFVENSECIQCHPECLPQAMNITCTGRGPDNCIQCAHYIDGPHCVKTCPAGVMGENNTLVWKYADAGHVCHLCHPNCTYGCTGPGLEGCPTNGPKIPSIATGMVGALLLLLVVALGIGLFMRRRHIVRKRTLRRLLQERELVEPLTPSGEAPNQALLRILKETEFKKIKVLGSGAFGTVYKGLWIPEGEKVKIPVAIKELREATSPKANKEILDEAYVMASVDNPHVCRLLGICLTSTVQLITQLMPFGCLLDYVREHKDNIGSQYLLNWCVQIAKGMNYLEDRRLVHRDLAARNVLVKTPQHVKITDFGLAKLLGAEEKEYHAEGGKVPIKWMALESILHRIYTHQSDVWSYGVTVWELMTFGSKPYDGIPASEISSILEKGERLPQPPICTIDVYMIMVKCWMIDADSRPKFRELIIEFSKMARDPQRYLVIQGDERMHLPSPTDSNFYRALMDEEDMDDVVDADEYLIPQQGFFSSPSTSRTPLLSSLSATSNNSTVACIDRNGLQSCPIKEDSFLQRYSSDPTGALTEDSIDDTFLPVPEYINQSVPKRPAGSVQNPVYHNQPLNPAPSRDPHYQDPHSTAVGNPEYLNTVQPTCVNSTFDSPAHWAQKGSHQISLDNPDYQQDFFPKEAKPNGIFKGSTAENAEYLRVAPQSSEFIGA

[34] = target: T33, 371 kinases (kinase named in each endpoint) (Homo sapiens, UniProt P09619); settings: PDGFRB
T33 construct: purchased Reaction Biology

[35] = target: T34, 371 kinases (kinase named in each endpoint) (Homo sapiens, UniProt P19784); settings: CK2A2
T34 construct: purchased Reaction Biology

[36] = target: T35, 371 kinases (kinase named in each endpoint) (Homo sapiens, UniProt Q9UPZ9); settings: LCK2/ICK
T35 construct: purchased Reaction Biology

O=C(O)c1cc(C(F)(F)F)ccc1NCCc1c[nH]c2cc(Br)ccc12 [Compound 5, 2-((2-(6-Bromo-1H-indol-3-yl)ethyl)amino)−5-(trifluoromethyl)benzoic Acid]
activity at 10 µM [1]: 71.1 ± 2% | activity at 10 µM [2]: 95.2 ± 2.9% | activity at 10 µM [3]: 96.2 ± 1% | activity at 10 µM [4]: 95.8 ± 0.2% | activity at 10 µM [5]: 108 ± 1.4% | inhibition of any kinase [6]: ≤ 80% | share of the 371 kinases tested with >50% inhibition [6]: 4% | % Activity ([6]; LYN B): 93.2 ± 0.3% | % Activity ([6]; PKCB2): 100.1 ± 1.4% | % Activity ([6]; PKG1B): 78.0 ± 0.4% | activity at 10 µM ([7]; CDK9/CYCLIN K): 88.6 ± 0.7% | activity at 10 µM ([7]; CDK9/CYCLIN T1): 81.5 ± 1.5% | activity at 10 µM ([7]; CDK9/CYCLIN T2): 84.5 ± 0.4% | activity at 10 µM [8]: 100.7 ± 0.4% | activity at 10 µM [9]: 70.2 ± 3.3% | activity at 10 µM [10]: 105 ± 1.1% | activity at 10 µM [11]: 79.9 ± 2.4% | activity at 10 µM [12]: 96.1 ± 1.6% | activity at 10 µM [13]: 86.2 ± 1.1% | activity at 10 µM [14]: 85.1 ± 4.1% | activity at 10 µM [15]: 64.9 ± 0.2% | activity at 10 µM [16]: 98.7 ± 0.5% | activity at 10 µM [17]: 113.4 ± 0.1% | activity at 10 µM [18]: 112 ± 2.8% | activity at 10 µM [19]: 75.1 ± 1.7% | activity at 10 µM [20]: 90.6 ± 0.3% | activity at 10 µM [21]: 106.8 ± 0.3% | activity at 10 µM [22]: 95.4 ± 2% | activity at 10 µM [23]: 81 ± 0.3% | activity at 10 µM [24]: 78.3 ± 3.4% | activity at 10 µM [25]: 67.6 ± 0.3% | activity at 10 µM [26]: 74.5 ± 3.3% | activity at 10 µM [27]: 86.9 ± 0.4% | activity at 10 µM [28]: 89.9 ± 1.4% | activity at 10 µM [29]: 104 ± 2.4% | activity at 10 µM [30]: 95.8 ± 3% | activity at 10 µM [31]: 110 ± 0.1% | activity at 10 µM [32]: 80.2 ± 0.8% | activity at 10 µM [33]: 87.8 ± 1% | activity at 10 µM [34]: 92.5 ± 0.1% | activity at 10 µM [35]: 46.9 ± 0.5% | activity at 10 µM [36]: 98.2 ± 1.3%
